Measured values published in patent publication EP0468448B1, “Analogs of hirudin having antiplatelet activity” (MERRELL PHARMACEUTICALS INC., priority 1990, dated 1992).
Numbered stars: 1 amine (or outer) side, 2 acyl side, 3 side chain; on linkers, the order of the positions; unused ones are H or OH. Square brackets hold non-standard residues; d marks the D form. Peptide text beside a SMILES is read from it. Cha = N[C@@H](CC1CCCCC1)C(=O)O; Suc = O=C(CCC(=O)[*:2])[*:1]; Ava = NCCCCC(=O)O

Test system: platelet
Test: Dog antiplatelet activity
Type: cell-based
Conditions: read-out: Dog Antiplatelet IC₅₀

SMILES	IC50 [µM]
CC[C@H](C)[C@H](NC(=O)[C@@H]1CCCN1C(=O)[C@H](CCC(=O)O)NC(=O)[C@H](Cc1ccc(OC)cc1)NC(=O)[C@H](CC(=O)O)NC(=O)CNC(=O)CCCCNC(=N)N)C(=O)N1CCC[C@H]1C(=O)N[C@@H](CCC(=O)O)C(=O)N[C@@H](CCC(=O)O)C(=O)N[C@@H](C)C(=O)N[C@@H](CC1CCCCC1)C(=O)N[C@H](CCC(=O)O)C(=O)O [Example 5, 5GP-Gly-Asp-Tyr(OCH₃)-Glu-Pro-Ile-Pro-Glu-Glu-Ala-Cha-glu-OH]	10
CC[C@H](C)[C@H](NC(=O)[C@@H]1CCCN1C(=O)[C@H](CCC(=O)O)NC(=O)[C@H](Cc1ccc(OC)cc1)NC(=O)[C@H](CC(=O)O)NC(=O)CNC(=O)CCCCN)C(=O)N1CCC[C@H]1C(=O)N[C@@H](CCC(=O)O)C(=O)N[C@@H](CCC(=O)O)C(=O)N[C@@H](C)C(=O)N[C@@H](CC1CCCCC1)C(=O)N[C@H](CCC(=O)O)C(=O)O [Example 3, 5AP-Gly-Asp-Tyr(OCH₃)-Glu-Pro-Ile-Pro-Glu-Glu-Ala-Cha-glu-OH]	280

More lines, now with the values ahead:

IC50 [µM]	SMILES
42	CC[C@H](C)[C@H](NC(=O)[C@@H]1CCCN1C(=O)[C@H](CCC(=O)O)NC(=O)[C@H](Cc1ccc(O)cc1)NC(=O)CCC(=O)O)C(=O)N1CCC[C@H]1C(=O)N[C@@H](CCCNC(=N)N)C(=O)NCC(=O)N[C@@H](CC(=O)O)C(=O)N[C@@H](Cc1ccccc1)C(=O)N[C@H](CCC(=O)O)C(=O)O [Example 4] (Suc-YEPIPRGDF[dE]-OH)
6	CC[C@H](C)[C@H](NC(=O)[C@@H]1CCCN1C(=O)[C@H](CCC(=O)O)NC(=O)[C@H](Cc1c[nH]c2ccccc12)NC(=O)[C@H](CC(=O)O)NC(=O)CNC(=O)CCCCNC(=N)N)C(=O)N1CCC[C@H]1C(=O)N[C@@H](CCC(=O)O)C(=O)N[C@@H](CCC(=O)O)C(=O)N[C@@H](C)C(=O)N[C@@H](CC1CCCCC1)C(=O)N[C@H](CCC(=O)O)C(=O)O [Example 1]
250	CC[C@H](C)[C@H](NC(=O)[C@H](CCC(=O)O)NC(=O)[C@H](CCC(=O)O)NC(=O)[C@H](Cc1c[nH]c2ccccc12)NC(=O)[C@H](CC(=O)O)NC(=O)CNC(=O)CCCCN)C(=O)N1CCC[C@H]1C(=O)N[C@@H](CCC(=O)O)C(=O)N[C@@H](CCC(=O)O)C(=O)N[C@@H](C)C(=O)N[C@@H](CC1CCCCC1)C(=O)N[C@H](CCC(=O)O)C(=O)O [Example 2] (H-[Ava]GDWEEIPEEA[Cha][dE]-OH)
